Measurements reported in US6720346B2, “Thiazole benzamide derivatives and pharmaceutical compositions for inhibiting cell proliferation” (Agouron Pharmaceuticals, Inc., priority 2001, dated 2004).
Where a name gives a salt, the structure may show the parent alone.

Legend:
human CDK4/cyclin D3 = molecular target: T1, human CDK4/cyclin D3 (Homo sapiens, UniProt P11802); experiment: Inhibition of CDK4/cyclin D retinoblastoma kinase activity (Ki; % inhibition); format: biochemical; conditions: for Ki: apparent Ki, CDK4/cyclin D3, Rb substrate
T1 construct: made in house; host or cells: insect cells co-infected with baculovirus vectors
T1 sequence (P11802 whole entry): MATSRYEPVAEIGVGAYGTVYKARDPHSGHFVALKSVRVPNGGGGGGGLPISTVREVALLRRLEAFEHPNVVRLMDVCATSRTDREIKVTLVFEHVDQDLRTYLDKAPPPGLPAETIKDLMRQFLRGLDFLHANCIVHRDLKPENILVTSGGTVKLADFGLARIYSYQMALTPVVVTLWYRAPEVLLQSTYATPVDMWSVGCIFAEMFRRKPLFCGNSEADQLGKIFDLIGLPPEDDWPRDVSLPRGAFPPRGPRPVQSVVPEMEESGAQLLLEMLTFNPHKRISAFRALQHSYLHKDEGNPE
T1 sequence (P30281 1-264 partner limits assumed): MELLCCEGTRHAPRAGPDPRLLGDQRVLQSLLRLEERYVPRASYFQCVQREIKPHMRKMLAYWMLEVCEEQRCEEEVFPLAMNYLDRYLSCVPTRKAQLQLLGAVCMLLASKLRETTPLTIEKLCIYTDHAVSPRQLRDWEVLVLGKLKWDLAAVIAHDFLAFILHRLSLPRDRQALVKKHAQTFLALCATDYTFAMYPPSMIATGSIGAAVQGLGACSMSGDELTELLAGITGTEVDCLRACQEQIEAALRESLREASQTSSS
Procedure, shortened: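 Insect-cell-expressed CDK4 with truncated cyclin D3 (1-264), 5 nM, phosphorylating His-tagged Rb fragment (386-928) with 25 μM [32/33P]ATP at pH 7.4, 30 °C, 20 min (60 min for tight binders). Filter capture, phosphorimager read; % inhibition at 30 nM compound, Ki from competitive or tight-binding fits.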

HCT-116 cell line = experiment: Inhibition of cell growth, MTT tetrazolium salt assay; format: cell-based; conditions: for IC50: Homo sapiens, HCT-116, 120 h, MTT, three to five days
Procedure, shortened: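 Growth inhibition was read as MTT-formazan absorbance at 540 nm, after 4 h with 0.2 mg/mL MTT. Before that, HCT-116 cells had been exposed 3–5 days at 37 °C to compounds in 0.5% (v/v) DMSO, added 4 h after plating. 50% and 90% inhibitory concentrations were taken from semi-log concentration–inhibition plots versus vehicle controls.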

CDK2/cyclin A = molecular target: T2, CDK2/cyclin A (Homo sapiens, UniProt P24941); experiment: Inhibition of CDK2/cyclin A retinoblastoma kinase activity (Ki; % inhibition); format: biochemical; conditions: for Ki: apparent Ki, CDK2/cyclin A, Rb substrate
T2 construct: made in house; host or cells: CDK2: insect cells (baculovirus); cyclin A: E. coli
Procedure, shortened: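 Radiometric filter assay of CDK2/proteolyzed cyclin A (baculovirus-expressed human CDK2, 10 or 19 nM) phosphorylating an Rb fragment with 25 μM [³²P/³³P]ATP in pH 7.4 HEPES, 2% DMSO, at 30 °C for 60 or 75 min under initial-rate conditions. Library compounds screened at 30 nM for % inhibition; apparent Ki from concentration series fit to competitive or tight-binding inhibition equations.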

[1] = HCT-116 cells, 0.25 μM compound

Structure (SMILES) | CDK4 % Inhibition at 0.03 μM (human CDK4/cyclin D3; 0.03 μM compound) | HCT-116 % Inhibition at 0.1 μM (HCT-116 cell line; HCT-116 cells, 0.1 μM compound) | HCT-116 % Inhibition at 0.25 μM (HCT-116 cell line; [1]) | CDK2 % Inhibition at 0.03 μM (CDK2/cyclin A; 0.03 μM compound) | further results
CCCN(CCC#N)C(=O)c1ccc(Nc2nc(N)c(C(=O)c3c(F)cccc3F)s2)cc1 [Example G364] | 9% | 20% | 40% | −12% | 
CCC(CO)NC(=O)c1ccc(Nc2nc(N)c(C(=O)c3c(F)cccc3F)s2)cc1 (centres unmarked) [Example G183] |  |  |  |  | CDK4 % Inhibition at 0.03 μM (human CDK4/cyclin D3; at 0.03 μM): 38%; HCT-116 % Inhibition at 0.1 μM (HCT-116 cell line; HCT-116, at 0.1 μM, 0.1 µM): 11%; HCT-116 % Inhibition at 0.25 μM (HCT-116 cell line; HCT-116, at 0.25 μM, 0.25 µM): 48%; CDK2 % Inhibition at 0.03 μM (CDK2/cyclin A; at 0.03 μM): 23%
C[C@@H](CN(C)C)NC(=O)c1ccc(Nc2nc(N)c(C(=O)c3c(F)cccc3F)s2)cc1 [Example A41] |  |  |  |  | Ki (human CDK4/cyclin D3): 35 nM; IC50 (HCT-116 cell line): 180 nM; Ki (CDK2/cyclin A): 230 nM
Cc1cc(NC(=O)c2ccc(Nc3nc(N)c(C(=O)c4c(F)cccc4F)s3)cc2)no1 [Example G393] | 0% | 8% | 46% | 8% | 
Nc1nc(Nc2ccc(C(=O)NCc3cccc(C(F)(F)F)c3)cc2)sc1C(=O)c1c(F)cccc1F [Example G293] | 32% | 10% | 56% | 23% | 
Cc1ccc(CNC(=O)c2ccc(Nc3nc(N)c(C(=O)c4c(F)cccc4F)s3)cc2)o1 [Example A6, 4-[4-Amino-5-(2,6-difluoro-benzoyl)-thiazol-2-ylamino]-N-(5-methyl-furan-2-ylmethyl)-benzamide] |  |  |  |  | Ki (human CDK4/cyclin D3): 15 nM; IC50 (HCT-116 cell line): 220 nM; Ki (CDK2/cyclin A): 7.5 nM
Nc1nc(Nc2ccc(C(=O)NCc3cccc(Cl)c3)cc2)sc1C(=O)c1c(F)cccc1F [Example G324] | 26% | 5% | 60% | 28% | 
Nc1nc(Nc2ccc(C(=O)Nc3ccc4nc[nH]c4c3)cc2)sc1C(=O)c1c(F)cccc1F [Example G100] |  |  |  |  | CDK4 % Inhibition at 0.03 μM (human CDK4/cyclin D3; at 0.03 μM): 22%; HCT-116 % Inhibition at 0.1 μM (HCT-116 cell line; HCT-116, at 0.1 μM): 27%; HCT-116 % Inhibition at 0.25 μM (HCT-116 cell line; HCT-116, at 0.25 μM): 89%; CDK2 % Inhibition at 0.03 μM (CDK2/cyclin A; at 0.03 μM): 13%
Nc1nc(Nc2ccc(C(=O)NCCc3cccnc3)cc2)sc1C(=O)c1c(F)cccc1F [Example G343] | 12% | 27% | 71% | 1% | 
Nc1nc(Nc2ccc(C(=O)NCC3CCCCN3)cc2)sc1C(=O)c1c(F)cccc1F (centres unmarked) [Example A33, 4-[4-Amino-5-(2,6-difluoro-benzoyl)-thiazol-2-ylamino]-N-(piperidin-2RS-ylmethyl)-benzamide Trifluoroacetate Salt] |  |  |  |  | Ki (human CDK4/cyclin D3): 10 nM; IC50 (HCT-116 cell line): 2200 nM; Ki (CDK2/cyclin A): 91 nM
Nc1nc(Nc2ccc(C(=O)NC3CCCCC3)cc2)sc1C(=O)c1c(F)cccc1F [Example G139] |  |  |  |  | CDK4 % Inhibition at 0.03 μM (human CDK4/cyclin D3; at 0.03 μM): 17%; HCT-116 % Inhibition at 0.1 μM (HCT-116 cell line; HCT-116, at 0.1 μM): 0%; HCT-116 % Inhibition at 0.25 μM (HCT-116 cell line; HCT-116, at 0.25 μM): 56%; CDK2 % Inhibition at 0.03 μM (CDK2/cyclin A; at 0.03 μM): 6%
Nc1nc(Nc2ccc(C(=O)Nc3cccc(O)c3)cc2)sc1C(=O)c1c(F)cccc1F [Example G378] | 8% | 27% | 60% | 40% | 
Nc1nc(Nc2ccc(C(=O)NCCCCc3ccccc3)cc2)sc1C(=O)c1c(F)cccc1F [Example G291] | 14% | 5% | 53% | 6% | 
CN(CCC1OCCO1)C(=O)c1ccc(Nc2nc(N)c(C(=O)c3c(F)cccc3F)s2)cc1 [Example G387] | 11% | 32% | 52% | 10% | 
